The values below come from ChEMBL document CHEMBL3120136 (J Med Chem, 2014).

Where a SMILES comes first, the peptide text is derived from it. [ ]: non-standard residue; d: D form. The star is where a group is joined. Ac3c(1R,2S-2-vinyl) = C=C[C@@H]1C[C@]1(N)C(=O)O; Hyp = O=C(O)[C@@H]1C[C@@H](O)CN1; Chg = N[C@H](C(=O)O)C1CCCCC1; Carbamoyl = NC(=O)*

The test system of one assay is Hepatitis C virus. Kind of assay: Antiviral activity against Hepatitis C virus infected in human HuH7 cells assessed as inhibition of HCV subgenomic replicon replication after 72 hrs by ELISA. The assay is classed as functional, organism-based, Hepacivirus hominis, Huh-7. The following applies: Hepatitis C virus, Huh-7, 72 h; read-out: EC50.
Assay [1] is described as follows: Inhibition of Hepatitis C virus full-length NS3/4A protease assessed as quenched-fluorogenic RET-S1 substrate cleavage incubated for 10 mins prior to substrate addition by FRET analysis. Also on record: species or system Hepacivirus hominis.

With `CC(C)(C)OC(=O)N[C@H]1CCCCC/C=C\[C@@H]2C[C@@]2(C(=O)NS(=O)(=O)C2CC2)NC(=O)[C@@H]2C[C@@H](OC(=O)N3Cc4cccc(N5CCOCC5)c4C3)CN2C1=O`, the 50% effective concentration (EC50) with Hepatitis C virus is 77 nM. The IC50 in assay [1] came out at 1.8 nM.
On the same counts, the results for `CC(C)(C)OC(=O)N[C@H]1CCNCC/C=C\[C@@H]2C[C@@]2(C(=O)NS(=O)(=O)C2CC2)NC(=O)[C@@H]2C[C@@H](OC(=O)N3Cc4cccc(F)c4C3)CN2C1=O` are 1830 nM and 9.7 nM.
On the same counts, the results for `O=C(N[C@H]1CCCCC/C=C\[C@@H]2C[C@@]2(C(=O)NS(=O)(=O)C2CC2)NC(=O)[C@@H]2C[C@@H](OC(=O)N3CCc4ccccc4C3)CN2C1=O)OC1CCCC1` are 6 nM and 1 nM.
On the same counts, the results for `CC(C)(C)OC(=O)N[C@H]1CCCCC/C=C\[C@@H]2C[C@@]2(C(=O)NS(=O)(=O)C2CC2)NC(=O)[C@@H]2C[C@@H](O)CN2C1=O` are 2130 nM and 75 nM.
Take `CC(C)(C)OC(=O)N[C@H]1CCCCC/C=C\[C@@H]2C[C@@]2(C(=O)NS(=O)(=O)C2CC2)NC(=O)[C@@H]2C[C@@H](NC(=O)c3nc4ccccc4s3)CN2C1=O`: in the assay with Hepatitis C virus, the EC50 came out at 13 nM. In addition, in assay [1], the half-inhibitory concentration (IC50) turned out to be 3.5 nM.
On the same counts, the results for `O=C(NC1CCCC1)N[C@H]1CCCCC/C=C\[C@@H]2C[C@@]2(C(=O)NS(=O)(=O)C2CC2)NC(=O)[C@@H]2C[C@@H](OC(=O)N3Cc4ccccc4C3)CN2C1=O` are 26 nM and 0.7 nM.
For the compound `CC(C)(C)OC(=O)N[C@H]1CCCC(F)(F)CCC[C@@H]2C[C@@]2(C(=O)NS(=O)(=O)C2CC2)NC(=O)[C@@H]2C[C@@H](OC(=O)N3Cc4cccc(F)c4C3)CN2C1=O`, the EC50 with Hepatitis C virus worked out at 46 nM. The IC50 in assay [1] amounted to 1.3 nM.
In the same order, the values of `CC(C)(C)OC(=O)N[C@H]1CCCCC/C=C\[C@@H]2C[C@@]2(C(=O)NS(=O)(=O)C2(Cc3ccccc3)CC2)NC(=O)[C@@H]2C[C@@H](OC(=O)N3Cc4ccccc4C3)CN2C1=O` are 25 nM and 1.6 nM.
As to `CC(C)(C)OC(=O)N[C@H]1CCCCC/C=C\[C@@H]2C[C@@]2(C(=O)NS(=O)(=O)c2ccc(Cl)s2)NC(=O)[C@@H]2C[C@@H](OC(=O)N3Cc4ccccc4C3)CN2C1=O`, the EC50 with Hepatitis C virus turned out to be 111 nM. In addition, the IC50 in assay [1] is 4.6 nM.
On the same counts, the results for `COc1ccc(NS(=O)(=O)NC(=O)[C@@]23C[C@H]2/C=C\CCCCC[C@H](NC(=O)OC(C)(C)C)C(=O)N2C[C@H](OC(=O)N4Cc5ccccc5C4)C[C@H]2C(=O)N3)cc1` are 184 nM and 11 nM.
On the same counts, the results for `CC(C)(C)OC(=O)N[C@H]1CCCCC/C=C\[C@@H]2C[C@@]2(C(=O)NS(=O)(=O)C2CC2)NC(=O)[C@@H]2C[C@@H](OC(=O)N3CCc4c(F)ccc(F)c4C3)CN2C1=O` are 24 nM and 1.2 nM.
In the same order, the values of `CC(C)(C)OC(=O)N[C@H]1CCCCC/C=C\[C@@H]2C[C@@]2(C(=O)NS(=O)(=O)N2CCCC2)NC(=O)[C@@H]2C[C@@H](OC(=O)N3Cc4ccccc4C3)CN2C1=O` are 11.8 nM and 2.6 nM.
Consider `CN1CCN(c2ccc3c(c2)CN(C(=O)O[C@@H]2C[C@H]4C(=O)N[C@]5(C(=O)NS(=O)(=O)C6CC6)C[C@H]5/C=C\CCCCC[C@H](NC(=O)OC(C)(C)C)C(=O)N4C2)C3)CC1`, for which the EC50 in the assay with Hepatitis C virus was found to be 41 nM. For the same compound, the IC50 in assay [1] stood at 2 nM.
In the same order, the values of `CC(C)(C)OC(=O)N[C@H]1CCCCC/C=C\[C@@H]2C[C@@]2(C(=O)NS(C)(=O)=O)NC(=O)[C@@H]2C[C@@H](OC(=O)N3Cc4ccccc4C3)CN2C1=O` are 156 nM and 6.6 nM.
Take `CC(C)(C)OC(=O)N[C@H]1CCCCC/C=C\[C@@H]2C[C@@]2(C(=O)NS(=O)(=O)C2CC2)NC(=O)[C@@H]2C[C@@H](OC(=O)N3Cc4ccc(C(F)(F)F)cc4C3)CN2C1=O`: the EC50 with Hepatitis C virus is 20 nM. For the same compound, the IC50 in assay [1] turned out to be 21 nM.
In the same order, the values of `CN(C)c1cccc2c1CCN(C(=O)O[C@@H]1C[C@H]3C(=O)N[C@]4(C(=O)NS(=O)(=O)C5CC5)C[C@H]4/C=C\CCCCC[C@H](NC(=O)OC(C)(C)C)C(=O)N3C1)C2` are 20 nM and 2.4 nM.
On the same counts, the results for `CC(C)(C)OC(=O)N[C@H]1CCCCC/C=C\[C@@H]2C[C@@]2(C(=O)O)NC(=O)[C@@H]2C[C@@H](OC(=O)N3Cc4c(Cl)ccc(Cl)c4C3)CN2C1=O` are 1480 nM and 21 nM.
In the same order, the values of `CN1CCN(S(=O)(=O)NC(=O)[C@@]23C[C@H]2/C=C\CCCCC[C@H](NC(=O)OC(C)(C)C)C(=O)N2C[C@H](OC(=O)N4Cc5ccccc5C4)C[C@H]2C(=O)N3)CC1` are 46 nM and 17 nM.
Take `COCC1(S(=O)(=O)NC(=O)[C@@]23C[C@H]2/C=C\CCCCC[C@H](NC(=O)OC(C)(C)C)C(=O)N2C[C@H](OC(=O)N4Cc5ccccc5C4)C[C@H]2C(=O)N3)CC1`: the half-maximal effective concentration (EC50) in the assay on Hepatitis C virus was 13 nM. The IC50 in assay [1] turned out to be 7.7 nM.
In the same order, the values of `CC(C)(C)NC(=O)N[C@H]1CCCCC/C=C\[C@@H]2C[C@@]2(C(=O)NS(=O)(=O)C2CC2)NC(=O)[C@@H]2C[C@@H](OC(=O)N3Cc4ccccc4C3)CN2C1=O` are 38 nM and 2.4 nM.
On the same counts, the results for `CC(C)(C)OC(=O)N[C@H]1CCCCC/C=C\[C@@H]2C[C@@]2(C(=O)NS(=O)(=O)C(F)(F)F)NC(=O)[C@@H]2C[C@@H](OC(=O)N3Cc4ccccc4C3)CN2C1=O` are 166 nM and 4.8 nM.
Take `CC(C)(C)OC(=O)N[C@H]1CCCCC/C=C\[C@@H]2C[C@@]2(C(=O)NS(=O)(=O)Nc2ccc(Cl)cc2)NC(=O)[C@@H]2C[C@@H](OC(=O)N3Cc4ccccc4C3)CN2C1=O`: the EC50 in the assay on Hepatitis C virus is 97 nM. Also, the IC50 in assay [1] came out at 7.9 nM.
Consider `CC(C)(C)OC(=O)N[C@H]1CCCCC/C=C\[C@@H]2C[C@@]2(C(=O)O)NC(=O)[C@@H]2C[C@@H](OC(=O)N3Cc4ccc(Cl)cc4C3)CN2C1=O`, for which the EC50 in the assay on Hepatitis C virus worked out at 3160 nM. Also, the IC50 in assay [1] was found to be 110 nM.
`CC(C)(C)OC(=O)N[C@H]1CCCCC/C=C\[C@@H]2C[C@@]2(C(=O)NS(=O)(=O)C2CC2)NC(=O)[C@@H]2C[C@@H](NS(=O)(=O)c3cccc4ccccc34)CN2C1=O`: the EC50 with Hepatitis C virus is more than 10000 nM. The IC50 in assay [1] is 470 nM.
Consider `CC(C)(C)OC(=O)N[C@H]1CCCCC/C=C\[C@@H]2C[C@@]2(C(=O)NS(=O)(=O)C2CC2)NC(=O)[C@@H]2C[C@@H](OC(=O)N3Cc4ccccc4C(O)C3)CN2C1=O` (stereo partly specified), for which the EC50 in the assay with Hepatitis C virus came to 718 nM. For the same compound, in assay [1], the IC50 was 2.2 nM.
Consider `CC(C)S(=O)(=O)NC(=O)[C@@]12C[C@H]1/C=C\CCCCC[C@H](NC(=O)OC(C)(C)C)C(=O)N1C[C@H](OC(=O)N3Cc4ccccc4C3)C[C@H]1C(=O)N2`, for which, in the assay with Hepatitis C virus, the EC50 was 21 nM. The IC50 in assay [1] worked out at 4.8 nM.
For `CC(C)(C)OC(=O)N[C@H]1CCCCC/C=C\[C@@H]2C[C@@]2(C(=O)NS(=O)(=O)C2(C)CC2)NC(=O)[C@@H]2C[C@@H](OC(=O)N3Cc4ccccc4C3)CN2C1=O`, the EC50 in the assay on Hepatitis C virus was 3.1 nM. Moreover, the IC50 in assay [1] came out at 0.5 nM.
In the same order, the values of `CC(C)(C)OC(=O)N[C@H]1CCCCC/C=C\[C@@H]2C[C@@]2(C(=O)NS(=O)(=O)C2CC2)NC(=O)[C@@H]2C[C@@H](OC(=O)N3CCc4cc(C(F)(F)F)ccc4C3)CN2C1=O` are 35 nM and 2.6 nM.
In the case of `COc1ccc(S(=O)(=O)NC(=O)[C@@]23C[C@H]2/C=C\CCCCC[C@H](NC(=O)OC(C)(C)C)C(=O)N2C[C@H](OC(=O)N4Cc5ccccc5C4)C[C@H]2C(=O)N3)cc1`, the EC50 with Hepatitis C virus is 10 nM. In assay [1], the IC50 amounted to 4.1 nM.
Take `CC(C)(C)OC(=O)N[C@H]1CCCCC/C=C\[C@@H]2C[C@@]2(C(=O)NS(=O)(=O)C2CC2)NC(=O)[C@@H]2C[C@@H](OC(=O)N3CCc4cccc(C(F)(F)F)c4C3)CN2C1=O`: the EC50 in the assay with Hepatitis C virus came to 13 nM. In assay [1], the IC50 was found to be 0.8 nM.
As for `CC(C)(C)OC(=O)N[C@H]1CCCCC/C=C\[C@@H]2C[C@@]2(C(=O)O)NC(=O)[C@@H]2C[C@@H](OC(=O)N3Cc4ccc(C(F)(F)F)cc4C3)CN2C1=O`, the concentration for a half-maximal effect (EC50) in the assay with Hepatitis C virus was 7520 nM. Besides, the IC50 in assay [1] stood at 195 nM.
On the same counts, the results for `CC(C)(C)OC(=O)N[C@H]1CCCCC/C=C\[C@@H]2C[C@@]2(C(=O)NS(=O)(=O)C2CC2)NC(=O)[C@@H]2C[C@@H](OC(=O)N3Cc4cccc(N)c4C3)CN2C1=O` are 4.1 nM and 0.2 nM.
`CC(C)(C)OC(=O)N[C@H]1CCCCC/C=C\[C@@H]2C[C@@]2(C(=O)NS(=O)(=O)NC2CC2)NC(=O)[C@@H]2C[C@@H](OC(=O)N3Cc4ccccc4C3)CN2C1=O`: the half-maximal effective concentration (EC50) in the assay with Hepatitis C virus was 32 nM. Also, the concentration for half-maximal inhibition (IC50) in assay [1] worked out at 4.2 nM.
Turning to `CN1CC/C=C\[C@@H]2C[C@@]2(C(=O)NS(=O)(=O)C2CC2)NC(=O)[C@@H]2C[C@@H](OC(=O)N3Cc4cccc(F)c4C3)CN2C(=O)[C@@H](NC(=O)OC(C)(C)C)CC1`, the EC50 with Hepatitis C virus was 837 nM. In assay [1], the IC50 is 7 nM.
As for `C=C[C@@H]1C[C@]1(NC(=O)[C@@H]1C[C@@H](OC(N)=O)CN1C(=O)[C@@H](NC(=O)[C@@H](NC(C)=O)C1CCCCC1)C(C)C)C(=O)O` (Ac-[Chg]V[Hyp](Carbamoyl)[Ac3c(1R,2S-2-vinyl)]-OH), the EC50 in the assay with Hepatitis C virus is more than 10000 nM. The IC50 in assay [1] stood at 200 nM.
In the case of `O=C(CCC(F)(F)F)N[C@H]1CCCCC/C=C\[C@@H]2C[C@@]2(C(=O)NS(=O)(=O)C2CC2)NC(=O)[C@@H]2C[C@@H](OC(=O)N3Cc4ccccc4C3)CN2C1=O`, the concentration for a half-maximal effect (EC50) in the assay on Hepatitis C virus was 48 nM. Also, the IC50 in assay [1] was 0.6 nM.
Regarding `CC(C)(C)OC(=O)N[C@H]1CCCCC/C=C\[C@@H]2C[C@@]2(C(=O)NS(=O)(=O)C2CC2)NC(=O)[C@@H]2C[C@@H](OC(=O)N3Cc4cccc(Cl)c4C3)CN2C1=O`, the 50% effective concentration (EC50) with Hepatitis C virus was determined as 2.2 nM. In addition, the IC50 in assay [1] turned out to be 3 nM.
In the case of `CC(C)(C)OC(=O)N[C@H]1CCCOCCC[C@@H]2C[C@@]2(C(=O)NS(=O)(=O)C2CC2)NC(=O)[C@@H]2C[C@@H](OC(=O)N3Cc4cccc(F)c4C3)CN2C1=O`, in the assay with Hepatitis C virus, the 50% effective concentration (EC50) amounted to 254 nM. Further, the IC50 in assay [1] was determined as 1 nM.
